From patent US20180077928A1, “INSECT REPELLENT FIBER AND INSECT REPELLENT SCREEN USING SAME” (priority 2015, published 2018)

Key:
[1] = Acceptable Daily Intake (ADI) set by WHO and FAO; acceptable intake used in evaluation criteria; set-up: species or system human; conditions: person/child who weighs 15 kg, calculated from ADI
Description: When the amount of the insect repellent 4 (permethrin) exposed to the surface of the insect repellent fiber 1 is less than 0.4 μg per gram of the insect repellent fiber 1, the insect repellent effect cannot be sufficiently exerted. […] The WHO and FAO (Food and Agriculture Organization of the United Nations) have investigated harmful effects of permethrin to a human body on the basis of a large amount of data obtained by animal tests and the like. According to the investigation results, the amount of permethrin that can be ingested by human over a lifetime without an appreciable health risk, or also referred to as ADI (Acceptable Daily Intake), is set to “0.05 mg/day/kg”. For example, for people who weigh 15 kg (weight of around a child), this value per day is calculated to be 0.75 mg. This means that permethrin of such an amount may be continually ingested without an appreciable health risk. […]
The safety was evaluated according to the following evaluation criteria by assuming a situation that a child who weighs 15 kg licked a whole area of a screen door in which the insect repellent screen having an area of 1 m^2 was installed. […] It is noted that when the insert repellent screen was evaluated as “good”, the insect repellent screen was determined to be safe.

[2] = human, over a lifetime without appreciable health risk; WHO and FAO; cited from earlier work

SMILES	acceptable intake per day [1] [mg]	ADI (Acceptable Daily Intake) [2] [mg/day/kg]
CCOc1ccc(C(C)(C)COCc2cccc(Oc3ccccc3)c2)cc1 [ethofenprox]	0.45	
CC1(C)C(C=C(Cl)Cl)C1C(=O)OCc1cccc(Oc2ccccc2)c1 (stereo not drawn) [permethrin]	0.75	0.05
